Like-named read-outs stand apart in the source and are kept apart here. Starred links: 1 amine or outer side, 2 acyl side, 3 side chain; linkers in the order of their positions; H or OH if unused. Non-standard residues stand in square brackets, D forms with d. Groups on a side chain read outwards from the residue. No end group written: not given here. *: point of attachment. C20 diacid = O=C(O)CCCCCCCCCCCCCCCCCCC(=O)*; C18 diacid = O=C(O)CCCCCCCCCCCCCCCCC(=O)*; γGlu = O=C(O)[C@H](CCC(=O)[*:2])N[*:1]; αMe4Pal = C[C@](N)(Cc1ccncc1)C(=O)O; 4Pal = N[C@@H](Cc1ccncc1)C(=O)O; αMeL = CC(C)C[C@](C)(N)C(=O)O; Orn = NCCC[C@H](N)C(=O)O; AEEA = NCCOCCOCC(=O)O; Aib = CC(C)(N)C(=O)O
Experiments:
Type in all cases: cell-based
hGLP-1R [1] = target: T1, hGLP-1R (Homo sapiens, UniProt P43220); test: Functional cAMP activation in the presence of 0.1% casein (no HSA);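 also: intracellular cAMP rise after 30 min at 37 °C read by HTRF, normalized between buffer only (0%) and maximal control ligand (100%), four-parameter variable-slope fit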
T1 sequence (P43220 24-463): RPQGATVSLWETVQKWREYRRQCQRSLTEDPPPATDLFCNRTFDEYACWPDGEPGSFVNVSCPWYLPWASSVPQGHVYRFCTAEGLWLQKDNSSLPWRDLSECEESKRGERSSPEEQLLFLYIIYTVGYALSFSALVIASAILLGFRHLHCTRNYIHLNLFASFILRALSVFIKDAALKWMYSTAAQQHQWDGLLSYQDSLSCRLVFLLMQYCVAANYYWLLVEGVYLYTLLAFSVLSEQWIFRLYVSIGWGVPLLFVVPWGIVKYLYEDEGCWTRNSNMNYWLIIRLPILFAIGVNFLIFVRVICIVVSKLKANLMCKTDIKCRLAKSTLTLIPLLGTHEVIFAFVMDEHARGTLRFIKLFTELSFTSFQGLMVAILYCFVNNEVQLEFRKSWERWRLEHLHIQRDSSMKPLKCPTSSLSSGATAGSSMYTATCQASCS

hGcgR = hGcgR (Homo sapiens, UniProt P47871); test: as above;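 also: intracellular cAMP rise after 30 min at 37 °C, read by HTRF against a cAMP standard curve, scaled from buffer only (0%) to maximal control ligand response (100%)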
Sequence of hGcgR (P47871 26-477): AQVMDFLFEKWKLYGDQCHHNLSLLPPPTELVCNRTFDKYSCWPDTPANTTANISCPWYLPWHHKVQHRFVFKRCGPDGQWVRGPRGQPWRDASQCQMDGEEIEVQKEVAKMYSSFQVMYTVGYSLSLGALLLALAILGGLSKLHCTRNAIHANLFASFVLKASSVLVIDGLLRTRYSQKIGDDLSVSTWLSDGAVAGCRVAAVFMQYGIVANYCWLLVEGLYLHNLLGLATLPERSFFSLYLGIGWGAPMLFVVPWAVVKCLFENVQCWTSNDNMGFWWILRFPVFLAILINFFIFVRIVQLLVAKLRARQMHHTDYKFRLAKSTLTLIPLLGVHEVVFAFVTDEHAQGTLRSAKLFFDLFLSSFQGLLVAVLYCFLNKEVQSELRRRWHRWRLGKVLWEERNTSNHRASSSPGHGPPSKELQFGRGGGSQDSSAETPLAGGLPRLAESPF

hGLP-1R [2] = target: T1, hGLP-1R; test: Functional cAMP activity in the presence of 1% HSA
hGIPR [3] = target: T2, hGIPR (Homo sapiens, UniProt P48546); test: Functional cAMP activity in the presence of 1% HSA
T2 sequence (P48546 22-466): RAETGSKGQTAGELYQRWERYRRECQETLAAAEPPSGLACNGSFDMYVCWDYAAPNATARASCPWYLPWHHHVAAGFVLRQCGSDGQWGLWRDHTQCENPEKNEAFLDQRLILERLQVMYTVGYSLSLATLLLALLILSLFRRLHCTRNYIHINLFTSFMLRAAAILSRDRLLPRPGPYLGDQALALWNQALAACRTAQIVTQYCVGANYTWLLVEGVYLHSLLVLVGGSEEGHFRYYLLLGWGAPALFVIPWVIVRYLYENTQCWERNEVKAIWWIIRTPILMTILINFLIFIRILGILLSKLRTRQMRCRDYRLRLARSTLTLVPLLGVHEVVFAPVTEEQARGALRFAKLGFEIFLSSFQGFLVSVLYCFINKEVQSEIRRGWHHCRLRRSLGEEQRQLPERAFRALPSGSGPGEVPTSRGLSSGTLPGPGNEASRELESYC

human GcgR = human GcgR (Homo sapiens, UniProt P47871); test: Functional cAMP activity in the presence of 1% HSA
Sequence of human GcgR (P47871 26-477): as the sequence (P47871 26-477) above

human GLP1-R = human GLP1-R (Homo sapiens, UniProt P43220); test: GLP1-R internalization assay in HEK293 cells; conditions: for Internalization % TOP: normalized to maximum concentration of GLP-1 (100%)
Sequence of human GLP1-R (P43220 24-463): as the sequence (P43220 24-463) above

hGIPR [4] = target: T2, hGIPR; test: Functional cAMP activation in the presence of 0.1% casein (no HSA);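 as to Relative cAMP EC50, hGIPR: intracellular cAMP rise after 30 min at 37 °C read by HTRF against a standard curve, scaled between buffer alone (0%) and top control ligand concentration (100%), four-parameter fit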;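 as to Relative cAMP EC50, hGcgR: intracellular cAMP rise after 30 min at 37 °C, read by HTRF against a cAMP standard curve, scaled from buffer only (0%) to maximal control ligand response (100%)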
[5] = in the presence of 0.1% casein (no HSA), geometric mean, read-out: Relative cAMP EC50, hGLP-1R
[6] = in the presence of 0.1% casein (no HSA), geometric mean, read-out: Relative cAMP EC50, hGcgR
[7] = read-out: cAMP Rel EC50, hGLP-1R
[8] = HEK293 cells expressing SNAP-GLP-1R, read-out: GLP1R Internalization EC50
[9] = in the presence of 0.1% casein (no HSA), geometric mean, read-out: Relative cAMP EC50, hGIPR

Row | Compound | EC50 (hGLP-1R [1]; [5]) [nM] | EC50 (hGcgR; [6]) [nM] | EC50 (hGLP-1R [2]; [7]) [nM] | EC50 (hGIPR [3]; read-out: cAMP Rel EC50, hGIPR) [nM] | EC50 (human GcgR; read-out: cAMP Rel EC50, hGcgR) [nM] | EC50 (human GLP1-R; [8]) [nM] | Internalization % TOP (human GLP1-R) [%] | EC50 (hGIPR [4]; [9]) [nM] | EC50 (hGLP-1R [1]) [nM] | EC50 (hGcgR) [nM] | EC50 (hGLP-1R [2]) [nM] | EC50 (hGIPR [3]) [nM] | EC50 (human GcgR) [nM] | EC50 (human GLP1-R) [nM] | EC50 (hGIPR [4]) [nM]
1 | H-Y[Aib]QGTFTSDFS[Orn][αMeL]LDKK([AEEA-γGlu-C18 diacid])AQ[Aib]AFIEYLLAGGPSSGAPPPSGE-NH2 [Example 86] | 2.43 | 7.23 | 421 | 19.6 | 1130 | 57.8 | 52.5 | 0.145 | – | – | – | – | – | – | –
2 | H-Y[Aib]QGTFTSDFSR[αMeL]LDKK([AEEA-AEEA-γGlu-C18 diacid])AQ[Aib]AFIEYLLE[Aib]GPSSGAPPPSGS-NH2 [Example 80] | – | – | – | – | – | – | 48.2 | – | 2.55 | 7.44 | 627 | 10.1 | 1190 | 35.8 | 0.0593
3 | H-Y[Aib]QGTFTSDFS[Orn][αMeL]LDKK([AEEA-γGlu-C18 diacid])AQ[Aib]AFIEYLLE[Aib]GPSSGAPPPSGT-NH2 [Example 200] | 3.19 | 2.83 | 395 | 13.7 | 360 | 86.1 | 39.2 | 0.0739 | – | – | – | – | – | – | –
4 | CC[C@H](C)[C@H](NC(=O)[C@H](Cc1ccccc1)NC(=O)[C@H](C)NC(=O)C(C)(C)NC(=O)[C@H](CCC(N)=O)NC(=O)[C@H](C)NC(=O)[C@H](CCCCNC(=O)CC[C@H](NC(=O)CC[C@H](NC(=O)CC[C@H](NC(=O)CCCCCCCCCCCCCCCCC(=O)O)C(=O)O)C(=O)O)C(=O)O)NC(=O)[C@H](CCCCN)NC(=O)[C@H](CC(=O)O)NC(=O)[C@H](CC(C)C)NC(=O)[C@](C)(CC(C)C)NC(=O)[C@H](CCCN)NC(=O)[C@H](CO)NC(=O)[C@H](Cc1ccccc1)NC(=O)[C@H](CC(=O)O)NC(=O)[C@H](CO)NC(=O)[C@@H](NC(=O)[C@H](Cc1ccccc1)NC(=O)[C@@H](NC(=O)CNC(=O)[C@H](CCC(N)=O)NC(=O)C(C)(C)NC(=O)[C@@H](N)Cc1ccc(O)cc1)[C@@H](C)O)[C@@H](C)O)C(=O)N[C@@H](CCC(=O)O)C(=O)N[C@@H](Cc1ccc(O)cc1)C(=O)N[C@@H](CC(C)C)C(=O)N[C@@H](CC(C)C)C(=O)N[C@@H](CCC(=O)O)C(=O)N[C@H](C)C(=O)NCC(=O)N1CCC[C@H]1C(=O)N[C@@H](CO)C(=O)N[C@@H](CO)C(=O)NCC(=O)N[C@@H](C)C(=O)N1CCC[C@H]1C(=O)N1CCC[C@H]1C(=O)N1CCC[C@H]1C(=O)N[C@@H](CO)C(=O)NCC(=O)N[C@H](C(N)=O)[C@@H](C)O [Example 205] | 2.71 | 8.98 | 234 | 24.4 | 397 | 49.4 | 67.7 | 0.16 | – | – | – | – | – | – | –
5 | H-Y[Aib]QGTFTSDFSR[αMeL]LDKK([AEEA-γGlu-C18 diacid])AQ[αMe4Pal]AFIEYLIE[Aib]GESSGAPPPSGE-NH2 [Example 231] | – | – | – | – | – | – | 27.7 | – | 1.3 | 2.12 | 223 | 27.4 | 443 | 36.1 | 0.119
6 | H-Y[Aib]QGTFTSDYS[Orn][αMeL]LDKK([AEEA-γGlu-C18 diacid])AQ[Aib]AFIEYLLEGGESSGAPPPSGS-NH2 [Example 359] | 4.61 | 2.1 | 826 | 103 | 957 | 49.6 | 74.4 | 0.281 | – | – | – | – | – | – | –
7 | Y[Aib]QGTFTSD[4Pal]SK[αMeL]LDKK([AEEA-γGlu-C20 diacid])AQ[Aib]AFIEYLLAGGPSSGEPPPSGE-NH2 [Example 28] | 3.68 | 12.6 | 686 | 63.8 | 1550 | 81.8 | 76.2 | 0.255 | – | – | – | – | – | – | –
8 | H-Y[Aib]QGTFTSDFS[Orn][αMeL]LDKK([AEEA-AEEA-γGlu-C18 diacid])AQ[Aib]AFIEYLLEGGPSSGAPPPGES-NH2 [Example 118] | 6.03 | 7.02 | 1450 | 63.4 | 2460 | 82.3 | 46.4 | 0.43 | – | – | – | – | – | – | –
9 | H-Y[Aib]QGTFTSDFS[Orn][αMeL]LDKK([AEEA-γGlu-C18 diacid])AQ[Aib]AFIEYLIE[Aib]GESSGAPPPSGE-NH2 [Example 219] | 0.835 | 7.77 | 221 | 23.3 | 1870 | 48 | 37.2 | 0.119 | – | – | – | – | – | – | –
10 | H-Y[Aib]QGTFTSDFS[Orn][αMeL]LDKK([AEEA-AEEA-γGlu-C20 diacid])AQ[Aib]AFIEYLLE[Aib]GPSSGAPPPSEG-NH2 [Example 71] | 3.12 | 8.74 | 1010 | 48.1 | 2800 | 58.8 | 68.6 | 0.105 | – | – | – | – | – | – | –
11 | H-Y[Aib]QGTFTSDFS[Orn][αMeL]LDKK([AEEA-γGlu-C18 diacid])AQ[Aib]AFIEYLLEGGHSSGEPPPGGS-NH2 [Example 164] | 5.02 | 2.92 | 962 | 59 | 411 | 45.9 | 46.5 | 0.302 | – | – | – | – | – | – | –
12 | H-Y[Aib]QGTFTSDFS[Orn][αMeL]LDKK([AEEA-AEEA-γGlu-C18 diacid])AQ[Aib]AFIEYLLE[Aib]GPSSGEPPPSGT-NH2 [Example 167] | 6.19 | 5.05 | 1300 | 24.7 | 938 | 75.9 | 44.7 | 0.101 | – | – | – | – | – | – | –
13 | H-Y[Aib]QGTFTSDFS[Orn][αMeL]LDKK([AEEA-γGlu-C18 diacid])AQ[Aib]AFIEYLLAGGPSSGAPPPSGS-NH2 [Example 95] | 1.95 | 8.41 | 380 | 18.2 | 1130 | 37.8 | 49.3 | 0.116 | – | – | – | – | – | – | –
14 | H-Y[Aib]QGTFTSDFS[Orn][αMeL]LDKK([AEEA-γGlu-C18 diacid])AQ[Aib]AFIEWLLEGGTSSGAPPPSGT-NH2 [Example 177] | 2.97 | 4.22 | 483 | 34.8 | 758 | 79.4 | 44 | 0.213 | – | – | – | – | – | – | –
15 | H-Y[Aib]QGTFTSDFS[Orn][αMeL]LDKK([γGlu-AEEA-γGlu-C18 diacid])AQ[Aib]AFIEYLLE[Aib]GPSSGAPPPSGT-NH2 [Example 276] | 2.61 | 2.82 | 103 | 6.28 | 113 | 237 | 68.4 | 0.0708 | – | – | – | – | – | – | –

— patent US20240270821A1, “GIP/GLP1/GCG TRI-RECEPTOR AGONISTS AND USES THEREOF” (priority 2023, published 2024)
